Where two headings read alike, the source gives them in different places.
Legend:
[1] = target: T1, D. melanogaster eIF4A mutant Y160L (Drosophila melanogaster, UniProt Q02748, Y160L); assay type: binding; settings: S3 Table, D. melanogaster mut.
T1 construct: made in house; host or cells: E. coli BL21 (DE3)

[2] = system: A. suspensa eIF4A mutant Y160L; settings: S3 Table, A. suspensa mut.
[3] = system: Ae. aegypti eIF4A mutant H161L; settings: for reduction in thermal shift with the mutant compared to the wt protein: Ae. aegypti eIF4A, (GA)5 10mer; for ∆Tm: S3 Table, Ae. aegypti mut.
D. melanogaster eIF4A wt = target: T2, D. melanogaster eIF4A wt (Drosophila melanogaster, UniProt Q02748); assay type: binding; settings: S3 Table
T2 construct: made in house; host or cells: E. coli BL21 (DE3)

[4] = system: eIF4A-dependent firefly luciferase translation in Aag2 cells; assay type: cell-based, Ae. aegypti; settings: t = 48 h
RVFV Clone 13 = assay type: cell-based, Rift Valley fever virus; settings: A549 cells pretreated with 50 nM silvestrol, MOI 0.1, 18 h post-infection, relative to DMSO controls
[5] = system: eIF4A-dependent firefly luciferase translation in S2 cells; assay type: cell-based, D. melanogaster; settings: t = 24 h
A549 cells = settings: 50–100 nM, WST-1
S2 cells = assay: cells; settings: Drosophila melanogaster, read-out: IC50 (best-fit value, 4PL dose-viability curve)
in vitro [6] = settings: Aedes aegypti, CC50, Aag2 cells, WST-1
Aag2 cells = assay: cells; settings: Aedes aegypti, read-out: IC50 (best-fit value, 4PL dose-viability curve)
RVFV MP-12 = assay type: cell-based, Rift Valley fever virus; settings: A549 cells pretreated with 50 nM silvestrol, MOI 0.1, 18 h post-infection, relative to DMSO controls
in vitro [7] = settings: Drosophila melanogaster, CC50, S2 cells, WST-1
[8] = silvestrol in the sub-CC50 range, vs DMSO and (AC)15 control

T2 sequence (Q02748 whole entry): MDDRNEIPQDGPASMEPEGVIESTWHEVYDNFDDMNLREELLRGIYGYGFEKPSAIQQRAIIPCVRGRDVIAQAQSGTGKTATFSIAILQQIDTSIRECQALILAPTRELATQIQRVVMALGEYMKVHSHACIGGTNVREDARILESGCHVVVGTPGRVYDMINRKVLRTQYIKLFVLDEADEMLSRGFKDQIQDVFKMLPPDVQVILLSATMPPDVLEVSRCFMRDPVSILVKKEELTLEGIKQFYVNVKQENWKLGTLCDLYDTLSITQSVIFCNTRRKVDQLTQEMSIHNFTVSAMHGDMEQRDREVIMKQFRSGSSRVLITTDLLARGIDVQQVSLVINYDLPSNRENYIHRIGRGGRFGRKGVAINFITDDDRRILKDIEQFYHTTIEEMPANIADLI
T1 sequence (Q02748 whole entry Y160L): as the sequence (Q02748 whole entry) above, with Y160L counted along it

## CONC(=O)C1C(O)C2(O)c3c(OC)cc(OC)cc3OC2(c2ccc(OC)cc2)C1c1ccccc1 (stereo not drawn) [CR-31-B (-)]
[1]; RNA oligo (AC)5
  ∆Tm: -4.66 °C
[1]; RNA oligo (AG)5
  ∆Tm: 0.74 °C
[1]; RNA oligo (GA)5
  ∆Tm: 1.88 °C
[1]; RNA oligo (UA)5
  ∆Tm: -4.43 °C
[1]; RNA oligo (UC)5
  ∆Tm: -4.09 °C
[1]; RNA oligo (UG)5
  ∆Tm: -2.27 °C
[2]; RNA oligo (AC)5
  ∆Tm: -4.03 °C
[2]; RNA oligo (GA)5
  ∆Tm: 2.81 °C
[2]; RNA oligo (UA)5
  ∆Tm: -4.53 °C
[2]; RNA oligo (UC)5
  ∆Tm: -4.59 °C
[2]; RNA oligo (UG)5
  ∆Tm: -2.82 °C
[3]
  reduction in thermal shift with the mutant compared to the wt protein: ~3 °C
[3]; RNA oligo (AC)5
  ∆Tm: -4.82 °C
[3]; RNA oligo (AG)5
  ∆Tm: 7.50 °C
[3]; RNA oligo (GA)5
  ∆Tm: 3.74 °C
[3]; RNA oligo (UA)5
  ∆Tm: -4.65 °C
[3]; RNA oligo (UC)5
  ∆Tm: -5.44 °C
[3]; RNA oligo (UG)5
  ∆Tm: -0.09 °C
D. melanogaster eIF4A wt; RNA oligo (AC)5
  ∆Tm: -0.43 °C
D. melanogaster eIF4A wt; RNA oligo (AG)5
  ∆Tm: 6.55 °C
D. melanogaster eIF4A wt; RNA oligo (GA)5
  ∆Tm: 5.81 °C
D. melanogaster eIF4A wt; RNA oligo (UA)5
  ∆Tm: -0.71 °C
D. melanogaster eIF4A wt; RNA oligo (UC)5
  ∆Tm: -1.11 °C
D. melanogaster eIF4A wt; RNA oligo (UG)5
  ∆Tm: 5.59 °C

## COC(=O)[C@H]1[C@@H](O)[C@@]2(O)c3c(OC)cc(O[C@@H]4O[C@@H]([C@H](O)CO)CO[C@H]4OC)cc3O[C@@]2(c2ccc(OC)cc2)[C@@H]1c1ccccc1 [silvestrol]
[1]; RNA oligo (AC)5
  ∆Tm: -1.65 °C
[1]; RNA oligo (AG)5
  ∆Tm: 1.76 °C
[1]; RNA oligo (GA)5
  ∆Tm: 2.90 °C
[1]; RNA oligo (UC)5
  ∆Tm: -3.87 °C
[1]; RNA oligo (UG)5
  ∆Tm: -2.05 °C
[4]
  translation efficiency with the (AC)15 control: already visible at the half CC50 concentration
[4]; [8]
  firefly luciferase activity / translation efficiency with the (AG)15 plasmid: strong reduction
RVFV Clone 13
  RVFV L-segment RNA levels: strong reduction
[5]; silvestrol concentrations in the CC50 range
  translation efficiency with the (AC)15 control: reduction of translation efficiency
[5]; [8]
  firefly luciferase activity / translation efficiency with the (AG)15 plasmid: strong reduction
A549 cells
  cytotoxicity: No cytotoxicity
S2 cells; 24 h
  IC50: 6.35 nM
S2 cells; 48 h
  IC50: 6.15 nM
In vitro [6]; 24 h incubation
  CC50: 55.6 nM
In vitro [6]; 48 h incubation
  CC50: 49 nM
Aag2 cells; 24 h
  IC50: 36.7 nM
Aag2 cells; 48 h
  IC50: 45.3 nM
RVFV MP-12
  RVFV L-segment RNA levels: strong reduction
[2]; RNA oligo (AC)5
  ∆Tm: -4.10 °C
[2]; RNA oligo (GA)5
  ∆Tm: 3.53 °C
[2]; RNA oligo (UA)5
  ∆Tm: -4.50 °C
[2]; RNA oligo (UC)5
  ∆Tm: -4.15 °C
[2]; RNA oligo (UG)5
  ∆Tm: -3.02 °C
In vitro [7]; 24 h incubation
  CC50: 11.5 nM
In vitro [7]; 48 h incubation
  CC50: 7.3 nM
[3]
  reduction in thermal shift with the mutant compared to the wt protein: about 5 °C
[3]; RNA oligo (AC)5
  ∆Tm: -5.7 °C
[3]; RNA oligo (AG)5
  ∆Tm: 7.84 °C
[3]; RNA oligo (GA)5
  ∆Tm: 3.91 °C
[3]; RNA oligo (UA)5
  ∆Tm: -5.16 °C
[3]; RNA oligo (UC)5
  ∆Tm: -5.73 °C
[3]; RNA oligo (UG)5
  ∆Tm: -0.68 °C
D. melanogaster eIF4A wt; RNA oligo (AC)5
  ∆Tm: 1.02 °C
D. melanogaster eIF4A wt; RNA oligo (AG)5
  ∆Tm: 9.55 °C
D. melanogaster eIF4A wt; RNA oligo (GA)5
  ∆Tm: 9.16 °C
D. melanogaster eIF4A wt; RNA oligo (UA)5
  ∆Tm: -0.09 °C
D. melanogaster eIF4A wt; RNA oligo (UC)5
  ∆Tm: -0.09 °C
D. melanogaster eIF4A wt; RNA oligo (UG)5
  ∆Tm: 7.31 °C

From article PMC13052863 (PLOS One, 2026)
